Common to all, as to experiment: inhibition of tumour cell growth, NCI panel, 48 h
Test [1] concerns HCT-116.
Test [2] has as its system SK-MEL-5.
Test [3] relates to SNB-75.
Test [4] deals with SF-268.
The test system of test [5] is CCRF-CEM.
In test [6] the test system is LOX IMVI.
For test [7], the system named is SNB-19.
In test [8] the test system is COLO 205.
Test [9] has as its system OVCAR-8.
In test [10] the test system is M14.
The subject of test [11] is DU-145.
Test [12] has as its system SR.
For test [13], the system named is OVCAR-3.
The subject of test [14] is TK-10.
For test [15], the system named is CAKI-1.
The test system of test [16] is SW-620.
The subject of test [17] is NCI-H460.
Test [18] has as its system UO-31.
Test [19] has as its system NCI-H226.
Test [20] relates to A498.

Experimental findings from ChEMBL document CHEMBL1201862, “PubChem BioAssay data set” (2004) are described below.

The structures appear in SMILES notation.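 Dose response: 5 concentrations. Exposure: 48 h. Format: 96-well plates. Endpoint: linear interpolation; highest concentration if not reached. GI50 = concentration required for 50% inhibition of growth.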 The source made the active and inactive calls. Rule as the data show it: active = GI50 up to about 1.1 µM and inactive = higher. Bounds are passed on as bounds.

For `C=C1CC2CCCC12C=O` (stereo not given), the GI50 in test [1], in test [2], in test [3], in test [4], in test [5] and in test [6] was > 10 µM (inactive) throughout. In addition, the GI50 in [7], in test [8], in test [9], in test [10], in [11] and in test [12] was > 10 µM (inactive) in each case. For the same compound, the GI50 in test [13], in test [14], in test [15] and in test [16] was > 10 µM (inactive) each time.

In the case of `CN(CCNC(=O)c1c[nH]c2c1Cc1ccccc1-2)CCNC(=O)c1c[nH]c2c1Cc1ccccc1-2`, the GI50 is 36.1 µM (inactive) in [1]; 21.8 µM (inactive) in test [2]; 32 µM (inactive) in test [4]; 35.1 µM (inactive) in test [17]; 29.9 µM (inactive) in [6]; 58.2 µM (inactive) in test [7]. Also, the GI50 was 35 µM (inactive) in test [8]; 32.1 µM (inactive) in test [9]; 28.6 µM (inactive) in test [18]; 30.8 µM (inactive) in test [10]; 60.1 µM (inactive) in test [11]; 24.6 µM (inactive) in test [19]. The GI50 is 29.6 µM (inactive) in [12]; 21 µM (inactive) in test [13]; 45.9 µM (inactive) in test [14]; 48.6 µM (inactive) in test [15]; 39.4 µM (inactive) in test [16].

For the compound `O=P(O)(Cc1ccccc1)c1ccccc1-c1ccccc1`, the GI50 in test [1] was > 100 µM (inactive); in test [2], > 100 µM (inactive); in [3], > 100 µM (inactive); in test [4], > 100 µM (inactive); in test [17] it was 62.7 µM (inactive); in test [5] it was > 100 µM (inactive). Moreover, the GI50 in [6] was > 100 µM (inactive); in test [7], > 100 µM (inactive); in test [8] it was 57.8 µM (inactive); in [9], > 100 µM (inactive); in [18] it was > 100 µM (inactive); in test [10] it was > 100 µM (inactive). Also, the GI50 in test [11], in [19], in test [12], in test [14], in [15] and in test [16] was > 100 µM (inactive) in each case.

Consider `CCC(C)[C@@H](NC1=C(Cl)C(=O)c2c(O)ccc(O)c2C1=O)C(=O)OC` (stereo not given in full), for which the GI50 in [1] was 2.4 µM (inactive); in [2], 2.02 µM (inactive); in test [3], 7.26 µM (inactive); in [4], 3.7 µM (inactive); in test [17] it was 2.64 µM (inactive); in test [5] it was 0.579 µM (active). The GI50 was 3.21 µM (inactive) in [6]; > 10 µM (inactive) in [7]; 2.13 µM (inactive) in [8]; 3.15 µM (inactive) in [9]; 2.31 µM (inactive) in [10]; 5.19 µM (inactive) in test [11]. Further, the GI50 in [19] is 4.14 µM (inactive); in test [12] it was 1.06 µM (active); in test [13], 2.79 µM (inactive); in test [14], > 10 µM (inactive); in test [15] it was 6.46 µM (inactive); in test [16] it was 4.46 µM (inactive).

Consider `Cc1nc2nnc(CCCCCCCCc3nnc4nc(C)[nH]n34)n2[nH]1`, for which the GI50 in test [1], in test [2], in test [3], in [4], in [17] and in test [5] was > 100 µM (inactive) in each case. In addition, the GI50 is 47.4 µM (inactive) in [6]; > 100 µM (inactive) in test [7]; > 100 µM (inactive) in [8]; > 100 µM (inactive) in test [9]; > 100 µM (inactive) in [18]; > 100 µM (inactive) in test [10]. Also, the GI50 in [11], in test [20], in [19], in [13], in [14] and in [15] was > 100 µM (inactive) in each case. For the same compound, in [16], the GI50 was > 100 µM (inactive).

Turning to `Cc1nc(C)c(C(=O)NNC(=O)c2ccccc2)cc1C(=O)NNC(=O)c1ccccc1`, the GI50 in test [1] was > 100 µM (inactive); in [2], > 100 µM (inactive); in test [3], > 10 µM (inactive); in test [4] it was > 100 µM (inactive); in [17], > 100 µM (inactive); in [5], > 100 µM (inactive). The GI50 in test [6], in test [7], in test [8], in [9], in test [18] and in test [10] was > 100 µM (inactive) throughout. In addition, the GI50 in [11], in test [20], in [19], in [13], in test [14] and in test [15] was > 100 µM (inactive) in each case. For the same compound, in [16], the GI50 is > 100 µM (inactive).

Regarding `CC(NC(=O)C(N)CC(=O)O)NC(=O)C1CCC1` (stereo not given), the GI50 in test [1], in [2], in test [3], in [4], in test [17] and in test [5] was > 100 µM (inactive) each time. Besides, the GI50 in test [6], in [7], in test [8], in test [9], in [18] and in test [10] was > 100 µM (inactive) throughout. For the same compound, the GI50 in test [11], in [20], in test [19], in [13], in [14] and in [15] was > 100 µM (inactive) throughout. The GI50 in test [16] was > 100 µM (inactive).

Take `C[O+]=C1C=CC(=C2SC(c3ccccc3)(c3ccccc3)c3ccccc32)C=C1.[O-][Cl+3]([O-])([O-])[O-]`: the GI50 was 10.3 µM (inactive) in [1]; 16.6 µM (inactive) in [2]; 26.9 µM (inactive) in [3]; 29 µM (inactive) in test [4]; 14 µM (inactive) in [17]; 26.4 µM (inactive) in [5]. Besides, the GI50 in [6] was 18 µM (inactive); in [7] it was 39.8 µM (inactive); in test [8] it was 17.3 µM (inactive); in [9], 32.1 µM (inactive); in [18], 10 µM (inactive); in test [10] it was 16.1 µM (inactive). For the same compound, the GI50 in [11] was 26.2 µM (inactive); in test [20] it was 24 µM (inactive); in [19], 14.5 µM (inactive); in test [13], 16.1 µM (inactive); in [14] it was 23.4 µM (inactive); in test [15], 30.9 µM (inactive). Besides, in [16], the GI50 was 31.6 µM (inactive).
